Data taken from article PMC3914206.

Experiments:
Format in all cases: binding
[1] = target: T1, panel of 442 kinases (Homo sapiens, UniProt Q6PHR2); conditions: kinase ULK3; compound concentration 10 µM
T1 construct: purchased KINOMEscan
T1 sequence (Q6PHR2 1-472): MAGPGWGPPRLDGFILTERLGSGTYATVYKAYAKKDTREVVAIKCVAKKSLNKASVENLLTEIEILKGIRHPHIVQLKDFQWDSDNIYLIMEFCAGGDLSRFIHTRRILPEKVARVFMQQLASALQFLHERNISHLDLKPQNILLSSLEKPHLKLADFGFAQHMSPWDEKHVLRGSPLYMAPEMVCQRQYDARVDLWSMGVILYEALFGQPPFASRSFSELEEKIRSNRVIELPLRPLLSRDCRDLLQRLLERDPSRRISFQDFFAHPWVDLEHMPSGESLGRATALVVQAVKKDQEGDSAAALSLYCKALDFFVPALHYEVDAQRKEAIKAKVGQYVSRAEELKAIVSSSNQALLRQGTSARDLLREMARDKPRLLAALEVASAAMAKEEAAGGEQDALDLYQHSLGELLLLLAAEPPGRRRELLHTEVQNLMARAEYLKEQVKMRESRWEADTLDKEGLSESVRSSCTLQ
From the text: (§1) We assessed the selectivity of members of this scaffold using the KINOMEscan methodology across a near comprehensive panel of 442 kinases [[18,27]].

[2] = target: T2, panel of 442 kinases (Homo sapiens, UniProt P42685); conditions: Compound Concentration 10 µM
T2 construct: purchased KINOMEscan
From the text: as §1

[3] = target: T3, panel of 442 kinases (Homo sapiens, UniProt Q16816); conditions: Compound Concentration 10 µM
T3 construct: purchased KINOMEscan
From the text: as §1

T2 sequence (P42685 whole entry): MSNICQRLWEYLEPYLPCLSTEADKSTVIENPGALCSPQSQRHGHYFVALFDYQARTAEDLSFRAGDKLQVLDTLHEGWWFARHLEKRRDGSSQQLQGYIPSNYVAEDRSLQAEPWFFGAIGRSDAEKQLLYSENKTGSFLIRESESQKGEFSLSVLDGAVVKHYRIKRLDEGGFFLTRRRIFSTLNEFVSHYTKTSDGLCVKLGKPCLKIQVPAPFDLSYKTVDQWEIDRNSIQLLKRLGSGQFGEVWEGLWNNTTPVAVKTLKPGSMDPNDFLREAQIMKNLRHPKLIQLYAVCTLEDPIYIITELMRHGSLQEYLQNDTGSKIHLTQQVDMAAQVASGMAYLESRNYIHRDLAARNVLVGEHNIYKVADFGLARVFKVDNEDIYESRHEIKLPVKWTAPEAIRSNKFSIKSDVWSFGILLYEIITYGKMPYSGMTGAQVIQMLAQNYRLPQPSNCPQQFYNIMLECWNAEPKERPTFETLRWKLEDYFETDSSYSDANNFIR
T3 sequence (Q16816 whole entry): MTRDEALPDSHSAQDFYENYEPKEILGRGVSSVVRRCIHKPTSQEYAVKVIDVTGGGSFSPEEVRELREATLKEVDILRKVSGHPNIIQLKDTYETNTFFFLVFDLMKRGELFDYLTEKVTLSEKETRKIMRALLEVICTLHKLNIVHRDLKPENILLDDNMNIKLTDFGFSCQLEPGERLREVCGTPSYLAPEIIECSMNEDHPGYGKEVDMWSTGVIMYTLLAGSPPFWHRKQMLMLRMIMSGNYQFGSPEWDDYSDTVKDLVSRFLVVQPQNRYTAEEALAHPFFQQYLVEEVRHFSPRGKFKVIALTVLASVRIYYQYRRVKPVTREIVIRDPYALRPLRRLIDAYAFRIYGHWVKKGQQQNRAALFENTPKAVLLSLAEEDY

Row | Structure (SMILES) | % Ctrl, ULK3 [1] [% Ctrl] | KINOMEscan: FRK [2] | KINOMEscan: PHKG1 [3]
1 | COc1cc(C(=O)N2CCC(N3CCN(C)CC3)CC2)ccc1Nc1ncc2c(n1)N(C1CCCC1)c1ccccc1C(=O)N2C [Compound 25, 11-cyclopentyl-2-((2-methoxy-4-(4-(4-methylpiperazin-1-yl)piperidine-1-carbonyl)phenyl)amino)-5-methyl-5H-benzo[e]pyrimido[5,4-b][1,4]diazepin-6(11H)-one] | 100 | 24 | 100
2 | CCOc1cc(C(=O)N2CCC(N3CCN(C)CC3)CC2)ccc1Nc1ncc2c(n1)N(C1CCCC1)c1ccccc1C(=O)N2C [Compound 26] | 100 | 87 | 100
3 | COc1cc(C(=O)N2CCC(N3CCN(C)CC3)CC2)ccc1Nc1ncc2c(n1)N1CCc3cccc(c31)C(=O)N2C [Compound 24] | 100 | 56 | 75
4 | COc1cc(C(=O)N2CCC(N3CCN(C)CC3)CC2)ccc1Nc1ncc2c(n1)N(C)c1ccccc1C(=O)N2C [15 (LRRK2-IN-1)] | 100 | 34 | 54
